# Measured values reported in the NIST ThermoML archive (doi:10.1021/acs.jced.7b00263).
# Numbers after ± are expanded uncertainties.
# Conditions: Liquid, Closed cell (Static) method
compound,measurement,setting,value
"F/C=C\C(F)(F)F [(Z)-1,3,3,3-tetrafluoro-1-propene]",vapor or sublimation pressure,353.17 K,858.3 ± 1.4 kPa
same,vapor or sublimation pressure,373.14 K,1347.5 ± 2.1 kPa
same,vapor or sublimation pressure,393.12 K,2023.7 ± 3.2 kPa
same,vapor or sublimation pressure,413.14 K,2940.4 ± 4.6 kPa
